# Experimental data taken from patent publication US20090239941A1, “AMINO ACID DERIVATIVES” (PROXIMAGEN LTD., priority 2006, published 2009).
# Tested on: 6-OHDA-lesioned rats
# Assay: Assessment of activity in 6-OHDA-lesioned rats (induction of rotational activity)
# Type: in vivo, rat
# Details: p.o., 63.4 μmole/kg, after benserazide 10 mg/kg; rotations over 4 hours; male Wistar rats
structure (smiles),measurement,value
"CC(C)CC(=O)Oc1ccc(C[C@H](N)C(N)=O)cc1OC(=O)CC(C)C.Cl [Example 5, (S)-2-[3,4-Bis-(3-methylbutyryloxy)-phenyl]-1-carbamoylethylammonium chloride]",Duration of activity as % of that of L-Dopa,71%
same,Peak activity as % of that of L-Dopa,118%
same,"Total activity (AUC activity, area under the locomotor-activity/time curve) as % of that of L-Dopa",89%
